According to ChEMBL document CHEMBL1201862, “PubChem BioAssay data set” (2004):
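Five compound concentrations were applied to cells in 96-well plates for 48 hours; endpoints were derived by simple linear interpolation of the resulting dose-response curve. At the GI50, growth is halved.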 Calls of active or inactive are those of the source. Rule as the data show it: active = GI50 up to about 1.1 µM and inactive = higher.

Legend:
Assay in all cases: NCI-60 cell line screen, 48 h
[1] = tested on: CCRF-CEM
[2] = tested on: HCT-15
[3] = tested on: HL-60
[4] = tested on: HOP-62
[5] = tested on: HOP-92
[6] = tested on: MOLT-4
[7] = tested on: NCI-H23
[8] = tested on: NCI-H460
[9] = tested on: NCI-H522
[10] = tested on: OVCAR-3
[11] = tested on: OVCAR-4
[12] = tested on: OVCAR-5
[13] = tested on: SF-268
[14] = tested on: SK-MEL-5
[15] = tested on: SK-OV-3
[16] = tested on: SW-620
[17] = tested on: SNB-19

SMILES | GI50 [1] | GI50 [2] | GI50 [3] | GI50 [4] | GI50 [5] | GI50 [6] | GI50 [7] | GI50 [8] | GI50 [9] | GI50 [10] | GI50 [11] | GI50 [12] | GI50 [13] | GI50 [14] | GI50 [15] | GI50 [16] | GI50 [17]
OCC(O)C(O)C(O)C(O)c1nnn[nH]1 (configuration not stated) | > 100 µM (inactive) | > 100 µM | > 100 µM (inactive) | > 100 µM (inactive) | > 100 µM (inactive) | > 100 µM (inactive) | > 100 µM (inactive) | > 100 µM (inactive) | > 100 µM (inactive) | > 100 µM (inactive) | > 100 µM (inactive) | > 100 µM (inactive) | > 100 µM (inactive) | 78.9 µM (inactive) | > 100 µM (inactive) | > 100 µM (inactive) | 
O=C(Nc1cccc(C(F)(F)F)c1)C(=O)C1NC(=S)NC1=O (configuration not stated) | 54.5 µM (inactive) | 35.3 µM | > 100 µM (inactive) | > 100 µM (inactive) | > 100 µM (inactive) | > 100 µM (inactive) | > 100 µM (inactive) | > 100 µM (inactive) |  | > 100 µM (inactive) | > 100 µM (inactive) | > 100 µM (inactive) | > 100 µM (inactive) | > 100 µM (inactive) | > 100 µM (inactive) | 17.7 µM (inactive) | > 100 µM (inactive)
Cn1c(=O)c(/N=N/c2c(=O)n(C)c(=O)n3c2[nH]c2ccccc23)c2[nH]c3ccccc3n2c1=O | 8.63 µM (inactive) | 48.5 µM | > 100 µM (inactive) | 57.1 µM (inactive) | 94.2 µM (inactive) |  | 71.1 µM (inactive) | 9.89 µM (inactive) | 66.5 µM (inactive) | > 100 µM (inactive) | > 100 µM (inactive) | > 100 µM (inactive) | 46.2 µM (inactive) | > 100 µM (inactive) | > 100 µM (inactive) | > 100 µM (inactive) | 13.2 µM (inactive)
Cc1nc(N2N=C(c3ccc(Cl)cc3)CCC2=O)sc1[N+](=O)[O-] | > 100 µM (inactive) | > 100 µM | > 100 µM (inactive) | > 100 µM (inactive) |  | > 100 µM (inactive) | > 100 µM (inactive) | > 100 µM (inactive) | > 100 µM (inactive) | > 100 µM (inactive) | > 100 µM (inactive) |  | > 100 µM (inactive) | > 100 µM (inactive) | > 100 µM (inactive) | > 100 µM (inactive) | > 100 µM (inactive)
COc1cc2c(cc1OC)C(Cc1cc(Br)c(OC)c(OC)c1)=[N+](C)CC2 | 92.5 µM (inactive) | > 100 µM | 36 µM (inactive) | 43.4 µM (inactive) | 28.2 µM (inactive) |  | 14.6 µM (inactive) | 58.1 µM (inactive) | 22.8 µM (inactive) | 28.2 µM (inactive) | 19.2 µM (inactive) | 45.1 µM (inactive) | > 100 µM (inactive) | 19.2 µM (inactive) | > 100 µM (inactive) | 67.3 µM (inactive) | 55.6 µM (inactive)
Cc1ccc(NC(=O)c2cc3cc(/N=N/c4ccccc4C(=O)O)ccc3oc2=O)cc1 | 30.2 µM (inactive) | 34.5 µM | 26.7 µM (inactive) | > 100 µM (inactive) |  | 32.2 µM (inactive) | 32.1 µM (inactive) | 49.3 µM (inactive) | 30.1 µM (inactive) | 25.2 µM (inactive) |  |  |  | 28.5 µM (inactive) | 74 µM (inactive) | 47.5 µM (inactive) | 28.4 µM (inactive)
Cc1ccc(S(=O)(=O)NC(=O)NCCc2ccccc2)cc1 | > 100 µM (inactive) |  | 74.1 µM (inactive) | > 100 µM (inactive) | > 100 µM (inactive) | > 100 µM (inactive) | 76.7 µM (inactive) | > 100 µM (inactive) | 73.8 µM (inactive) | > 100 µM (inactive) | > 100 µM (inactive) | > 100 µM (inactive) | > 100 µM (inactive) | > 100 µM (inactive) | > 100 µM (inactive) | > 100 µM (inactive) | > 100 µM (inactive)
O=c1[nH]c(-c2ccccc2)nc2ccc(Cl)cc12 |  | 35.7 µM |  |  | 16.5 µM (inactive) | 34 µM (inactive) | 77.4 µM (inactive) |  | 20.5 µM (inactive) | 31 µM (inactive) | 30.3 µM (inactive) | > 100 µM (inactive) | 28 µM (inactive) |  |  | 29.4 µM (inactive) | 79.3 µM (inactive)
NCCCNCc1c2ccccc2c(CNCCCN)c2ccccc12 | 16.9 µM (inactive) | 22 µM | 14.4 µM (inactive) | 22.9 µM (inactive) | 11.5 µM (inactive) | 12 µM (inactive) | 18.6 µM (inactive) | 16.4 µM (inactive) | 5.96 µM (inactive) | 28.3 µM (inactive) | 11.1 µM (inactive) | 21.3 µM (inactive) | 5.12 µM (inactive) | 27.1 µM (inactive) |  | 6.84 µM (inactive) | 33.2 µM (inactive)
O=C(NNC(=O)/C(=C/c1cccc([N+](=O)[O-])c1)NC(=O)c1ccccc1)Nc1ccc(Cl)cc1 | 6.58 µM (inactive) | 12.2 µM | 6.5 µM (inactive) | 14.3 µM (inactive) | 21 µM (inactive) | 3.94 µM (inactive) | 15.1 µM (inactive) | 14.6 µM (inactive) | 12.3 µM (inactive) | 11.6 µM (inactive) | 11.2 µM (inactive) | 18.3 µM (inactive) | 15.1 µM (inactive) | 13.1 µM (inactive) | 15.8 µM (inactive) | 15.1 µM (inactive) | 12.7 µM (inactive)
O=C(OCc1ccccc1C1CSCSC1)c1cc(C(=O)OCc2ccccc2C2CSCSC2)c(C(=O)OCc2ccccc2C2CSCSC2)cc1C(=O)OCc1ccccc1C1CSCSC1 | > 100 µM (inactive) | > 100 µM | > 100 µM (inactive) | > 100 µM (inactive) | > 100 µM (inactive) | > 100 µM (inactive) | > 100 µM (inactive) | > 100 µM (inactive) | > 100 µM (inactive) | > 100 µM (inactive) | > 100 µM (inactive) | > 100 µM (inactive) | > 100 µM (inactive) | > 100 µM (inactive) | > 100 µM (inactive) | > 100 µM (inactive) | 
O=C(CSc1nnc(-c2ccc(/N=C\c3ccc(Cl)cc3)cc2)o1)Nc1ccc(Cl)cc1Cl | 29.3 µM (inactive) | 23.3 µM | 33.9 µM (inactive) | 30.5 µM (inactive) | 22.3 µM (inactive) | 24.3 µM (inactive) | 25.3 µM (inactive) | > 100 µM (inactive) | 27 µM (inactive) |  | 30.3 µM (inactive) | 94.4 µM (inactive) | 25.2 µM (inactive) | 33.3 µM (inactive) | 27.5 µM (inactive) | 40.2 µM (inactive) | 31 µM (inactive)
COC(=O)C1=C(C[S+]([O-])c2ccc([N+](=O)[O-])cc2[N+](=O)[O-])ON(C)C1c1ccccc1 (configuration not stated) | 9.06 µM (inactive) | 37.8 µM | 7.66 µM (inactive) | 39 µM (inactive) |  | 17.4 µM (inactive) | 25.3 µM (inactive) | > 90.4 µM (inactive) | 17.7 µM (inactive) | 43.2 µM (inactive) | 48.4 µM (inactive) | > 95.7 µM (inactive) | 33.5 µM (inactive) | 83.9 µM (inactive) | > 100 µM (inactive) | 15.7 µM (inactive) | 32.8 µM (inactive)
C/C(=N\Nc1ccccc1)c1sc(-c2nc(C)c(/C(C)=N/Nc3ccccc3)s2)nc1C | 28.3 µM (inactive) | 11.4 µM | 31.8 µM (inactive) |  | 10.4 µM (inactive) | 19.2 µM (inactive) | 32.7 µM (inactive) | 42.2 µM (inactive) | 18.1 µM (inactive) | 23.6 µM (inactive) | 21.2 µM (inactive) | 51.3 µM (inactive) |  | 16.7 µM (inactive) | 58.5 µM (inactive) | 13.8 µM (inactive) | > 63.1 µM (inactive)
Fc1ccccc1C1CC(c2ccc3ccccc3c2)=Nc2ccccc2S1 (configuration not stated) | > 100 µM (inactive) |  | > 100 µM (inactive) | > 100 µM (inactive) |  | > 100 µM (inactive) | > 100 µM (inactive) | > 100 µM (inactive) | > 100 µM (inactive) | > 100 µM (inactive) | > 100 µM (inactive) | > 100 µM (inactive) | > 100 µM (inactive) |  | > 100 µM (inactive) | > 100 µM (inactive) | > 100 µM (inactive)
CCCCCCCCCCCCCCCC(=O)OCC1OC(n2cc(F)c(=O)[nH]c2=O)C(N)C(O)C1O (configuration not stated) | 16 µM (inactive) |  | 19.5 µM (inactive) | 19.7 µM (inactive) | 20.1 µM (inactive) | 22.8 µM (inactive) | 19.7 µM (inactive) |  | 17.8 µM (inactive) | 2.19 µM (inactive) | 15.8 µM (inactive) | 27 µM (inactive) | 19.5 µM (inactive) | 18.1 µM (inactive) | 22.4 µM (inactive) | 16.7 µM (inactive) | 22.2 µM (inactive)
CC(O)C(C(=O)O)N(CC1(O)OCC(O)C(O)C1O)N=O (configuration not stated) | > 100 µM (inactive) |  | > 100 µM (inactive) | > 100 µM (inactive) | > 100 µM (inactive) | > 100 µM (inactive) | > 100 µM (inactive) | > 100 µM (inactive) | > 100 µM (inactive) | > 100 µM (inactive) |  | > 100 µM (inactive) |  |  | > 100 µM (inactive) | > 100 µM (inactive) | 
Brc1ccccc1C1SCc2nc3ccccc3n21 (configuration not stated) | 21 µM (inactive) | 9.84 µM | 6.71 µM (inactive) | 19 µM (inactive) | 10.8 µM (inactive) | 18.5 µM (inactive) | 11.7 µM (inactive) | 17.4 µM (inactive) | 13.2 µM (inactive) | 13.5 µM (inactive) | 23.8 µM (inactive) | 10.2 µM (inactive) | 20 µM (inactive) | 6.34 µM (inactive) | 20.7 µM (inactive) | 32.3 µM (inactive) | 
